Results as given in publication PMC11355195 (Life, 2024).
In brackets after ≈: the same amount, converted by molar mass. Read-outs that look alike come from different tables or passages of the source.

Columns and labels:
MCF-7 cells = conditions: ref Seresht et al. (2019) [79], cited from earlier work
COX-2 = biological target: T1, COX-2 (Ovis aries, UniProt P79208); test: COX-2-catalyzed prostaglandin production inhibition; assay type: biochemical, sheep; conditions: mean ± standard deviation, three replicas
T1 construct: purchased Cayman Chemical Company, Ann Arbor, MI, USA; host or cells: sheep placenta (tissue)
T1 sequence (P79208 17-603): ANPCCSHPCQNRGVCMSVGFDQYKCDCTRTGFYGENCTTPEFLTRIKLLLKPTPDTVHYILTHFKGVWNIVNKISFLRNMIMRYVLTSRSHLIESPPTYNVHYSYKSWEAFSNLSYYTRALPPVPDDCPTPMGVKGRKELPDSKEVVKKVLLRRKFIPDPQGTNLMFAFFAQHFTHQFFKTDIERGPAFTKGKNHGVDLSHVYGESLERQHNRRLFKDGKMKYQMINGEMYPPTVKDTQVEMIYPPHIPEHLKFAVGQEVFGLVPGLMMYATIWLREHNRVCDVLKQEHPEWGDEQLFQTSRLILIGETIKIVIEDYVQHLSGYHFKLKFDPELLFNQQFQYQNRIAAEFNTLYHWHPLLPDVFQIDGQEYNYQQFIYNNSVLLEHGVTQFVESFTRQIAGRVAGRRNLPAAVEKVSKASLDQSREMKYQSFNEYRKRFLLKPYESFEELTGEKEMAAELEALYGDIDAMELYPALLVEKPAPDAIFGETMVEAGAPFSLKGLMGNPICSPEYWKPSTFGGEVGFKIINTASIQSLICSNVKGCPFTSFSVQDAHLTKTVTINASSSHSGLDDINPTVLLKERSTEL
Protocol: The COX inhibitory effects of the substances were examined using a COX-1/COX-2-catalyzed prostaglandin production test, using a modified approach by Futaki et al.. The chemicals were dissolved in 4% DMSO to a final concentration of 100 µg/mL.
In this test, one unit of COX-1 or COX-2 enzyme was suspended in a 0.1 M Tris-HCl buffer (pH 7.5) containing hematin ([…]) and phenol (2 mM) as cofactors. The COX-1 enzyme was produced from ram seminal vesicles, while COX-2 was taken from sheep placenta with a purity of 70% (both from Cayman Chemical Company, Ann Arbor, MI, USA). The reaction mixture was preincubated with either the solvent vehicle (4% DMSO) or the test solution for 2 min at 37 °C. […] Arachidonic acid, tagged with radioactive carbon ([1–14C]), serves as a substrate for the COX enzymes. The mixture was then incubated for an additional 2 min at 37 °C. […] The organic solvent phase was removed, and the PGE2 level in the remaining aqueous phase was quantified using a radioimmunoassay with a liquid scintillation counter, which measures the radioactivity (disintegrations per minute, DPM) of the [1–14C]-labeled PGE2. The percentage inhibition of COX-catalyzed prostaglandin production by the test compounds was estimated by comparing the radioactivity of the samples with the solvent vehicle controls. […]

- IC50 (COX-2): 177 µM
Structure (SMILES): Cc1ccc(C(C)C)c(O)c1 [Thymol, 2-isopropyl-5-methylphenol]
- IC50 on MCF-7 cells (MCF-7 cells; 48 h): 54 µg/mL (≈ 359 µM)
- IC50 on MCF-7 cells (MCF-7 cells; 72 h): 62 µg/mL (≈ 413 µM)
